In patent US6828111B2, “Three-dimensional in vitro model of human preneoplastic breast disease” (Wayne State University, priority 2000, dated 2004):
“Also recorded” adds a separate entry of the source.

Legend:
Type in all cases: cell-based, human
[1] = test system: EIII8-HUVEC co-cultures; experiment: Heterotypic EIII8-HUVEC 3D Matrigel co-culture, morphology; settings: for inhibition of endothelial sprouting and associated ductal-alveolar morphogenesis: 1 nM E2 plus 100-fold molar excess of antiestrogen, day 5
From the text: For heterotypic 3D co-cultures, 5×10^4 MCF10A, MCF10AT1, or EIII8 cells were mixed with an equal number of HUVECs, human breast fibroblasts (reduction mammoplasty, benign or tumor-derived), IMR-90, HT1080 or NIH 3T3 cells. For heterotypic tricultures, MCF10A or EIII8 cells were mixed with equivalent numbers of human breast fibroblasts (reduction mammoplasty, benign or tumor-derived) and HUVECs and seeded onto chamber slides coated with Matrigel as described for homotypic cultures. Typically, heterotypic co-cultures were performed in SFM supplemented with EGF and bFGF since this medium results in optimal viability, growth and 3D organization of both HUVEC and MCF10A cells. Typically, heterotypic cultures were performed in SFM supplemented with EGF and bFGF because it allows optimal viability, growth and 3D organization of HUVEC, fibroblasts and MCF10A cells. Heterotypic co-cultures were routinely maintained up to 3 weeks, and morphological development was analyzed by phase contrast microscopy. F To assess growth effects of E2 on homotypic (EIII8) or heterotypic (EIII8-HUVEC) 3D cultures, 5×10^4 EIII8 cells were seeded alone or mixed with an equivalent number of HUVEC in the appropriate medium in 8-well chamber slides coated with Matrigel as described above. Slides were incubated overnight to allow attachment of the cells, and treated with vehicle (0.01% ethanol, v/v), pure antiestrogen ICI 182,780 alone (100 or 1000 nM (Zeneca Pharmaceuticals, […]2 (0.1, 1 or 10 nM; Sigma Chemical Co., St. Louis, Mo.), or a combination of 1 nM E2 and 100- or 1000-fold molar excess of ICI 182,780. Cultures were incubated at 37° C. for 5 days, after which cell viability was measured with the MTS (3-(4,5-dimethylthiazol-2-yl)-5-(3-carboxymethoxyphenyl)-2-(4-sulfophenyl)-2H-tetrazolium) kit according to the manufacturer's directions (Promega Corp, Madison, Wis.).

[2] = test system: EIII8 cells; experiment: Homotypic EIII8 3D Matrigel culture, phase contrast morphology
[3] = test system: EIII8+31R+HUVEC tricultures; experiment: 3D growth of EIII8+31R+HUVEC tricultures, viable cell count; settings: 1 or 10 nM E2, 6 days, reduction mammoplasty fibroblasts
Protocol: (§1) 3-D cultures were set up by seeding 5×10^4 EIII8, HUVEC, […] or […] (reduction mammoplasty fibroblasts), […] or […] (tumor-derived breast fibroblasts) alone or mixing 5×10^4 EIII8 cells with an equivalent number of […] (or […]) or […] (or […]) in the absence or presence of an equivalent number of HUVEC cells onto chamber slides coated with Matrigel as described above. Cultures were incubated at 37° C. for 6 days, after which the cell viability was measured in the 3-D cultures. The medium was removed, wells were rinsed with phosphate buffered saline, and the Matrigel was digested with dispase for 2 h at 37° C. The digested material was centrifuged at 4000×g for 10 min, and the pellet was treated with trypsin to recover single cells from the 3-D structures. The number of viable cells was determined by trypan blue exclusion in a hemocytometer and results expressed as average±SE from three independent experiments. […]

[4] = test system: MCF10A-HUVEC co-cultures; experiment: Heterotypic MCF10A-HUVEC 3D Matrigel co-culture, morphology
From the text: For heterotypic 3D co-cultures, 5×10^4 MCF10A, MCF10AT1, or EIII8 cells were mixed with an equal number of HUVECs, human breast fibroblasts (reduction mammoplasty, benign or tumor-derived), IMR-90, HT1080 or NIH 3T3 cells. For heterotypic tricultures, MCF10A or EIII8 cells were mixed with equivalent numbers of human breast fibroblasts (reduction mammoplasty, benign or tumor-derived) and HUVECs and seeded onto chamber slides coated with Matrigel as described for homotypic cultures. Typically, heterotypic co-cultures were performed in SFM supplemented with EGF and bFGF since this medium results in optimal viability, growth and 3D organization of both HUVEC and MCF10A cells. Typically, heterotypic cultures were performed in SFM supplemented with EGF and bFGF because it allows optimal viability, growth and 3D organization of HUVEC, fibroblasts and MCF10A cells. Heterotypic co-cultures were routinely maintained up to 3 weeks, and morphological development was analyzed by phase contrast microscopy. F

[5] = test system: EIII8+38T+HUVEC tricultures; experiment: 3D growth of EIII8+38T+HUVEC tricultures, viable cell count
Protocol: as §1

[6] = test system: VEGF165; experiment: Western blot of VEGF165 in culture media of EIII8-HUVEC 3D cultures
Protocol: (§2) 5×10^4 EIII8 or MCF10A cells were seeded alone or mixed with an equivalent number of HUVEC on Matrigel in SFM media as described above. Cells were incubated for 6 h to attach and the medium was replaced with fresh SFM. After appropriate incubation, the culture media from homotypic and heterotypic co-cultures were collected, centrifuged to remove debris and stored at −20° C. Following removal of culture medium, matrix containing the 3D structures was either solubilized for SDS-PAGE and Western blot analysis or fixed in buffered formalin for evaluation of morphology and distribution of functional markers. Analysis of expression of VEGF, IL-8, Estrogen receptor (ER) and Flk-1/KDR proteins was carried out by Western analysis with specific antibodies. […] The following antibodies to human proteins were used: (1) rabbit polyclonal anti-VEGF antisera (recognizes C-terminal epitope of VEGF165, VEGF189 and VEGF206; Oncogene Science), mouse anti-ER mAb (Clone 1D5; reacts with the N-terminal domain or A/B region of the ER; Dako Corp., Carpenteria, Calif.), mouse anti-Flk-1/KDR mAb (Chemicon International, Inc.) and goat polyclonal anti-IL-8 antibody (R&D Systems). Immunoreactive bands were visualized by chemiluminescence, and band intensities were quantitated with a Model 300A densitometer (Molecular Dynamics, Sunnyvale, Calif.).

[7] = test system: EIII8-HUVEC co-cultures; experiment: 3D growth of EIII8-HUVEC cultures by MTS assay and trypan blue counts
Protocol: To assess growth effects of E2 on homotypic (EIII8) or heterotypic (EIII8-HUVEC) 3D cultures, 5×10^4 EIII8 cells were seeded alone or mixed with an equivalent number of HUVEC in the appropriate medium in 8-well chamber slides coated with Matrigel as described above. Slides were incubated overnight to allow attachment of the cells, and treated with vehicle (0.01% ethanol, v/v), pure antiestrogen ICI 182,780 alone (100 or 1000 nM (Zeneca Pharmaceuticals, […]2 (0.1, 1 or 10 nM; Sigma Chemical Co., St. Louis, Mo.), or a combination of 1 nM E2 and 100- or 1000-fold molar excess of ICI 182,780. Cultures were incubated at 37° C. for 5 days, after which cell viability was measured with the MTS (3-(4,5-dimethylthiazol-2-yl)-5-(3-carboxymethoxyphenyl)-2-(4-sulfophenyl)-2H-tetrazolium) kit according to the manufacturer's directions (Promega Corp, Madison, Wis.). Measurements were made from triplicate sets of wells for each treatment. Background absorbance was corrected by preparing triplicate sets of wells containing only Matrigel (“no cell”) and the same volume of medium and MTS reagent as in experimental wells. Average absorbances from “no cell” wells were subtracted from sample absorbance values containing cells to yield corrected absorbance, and the results represent the average±S.E. of triplicate samples. Each experiment was repeated at least three times. Since the MTS assays performed here differs from routine MTS assays in that they are done on 3D cultures growing in Matrigel rather than monolayers, results of MTS assays were validated by performing direct cell counts of viable cells in the 3D cultures. For this, the medium was removed, wells rinsed with PBS, and Matrigel was digested with dispase for 2 h at 37° C. The digested material was centrifuged at 4000×g for 10 min, and the pellet treated with trypsin to recover single cells from the 3D tubular structures. The number of viable cells was determined by trypan blue exclusion in a hemocytometer. Results were expressed as mean±S.E. from three independent experiments.

[8] = test system: IL-8; experiment: Western blot of IL-8 in culture media of EIII8-HUVEC 3D cultures
Protocol: as §2

[9] = test system: Flk-1/KDR; experiment: Western blot of Flk-1/KDR in matrix fractions of EIII8-HUVEC 3D cultures; settings: for regulation of Flk-1/KDR protein levels: 10-day old co-cultures
Protocol: (§3) 5×10^4 EIII8 or MCF10A cells were seeded alone or mixed with an equivalent number of HUVEC on Matrigel in SFM media as described above. Cells were incubated for 6 h to attach and the medium was replaced with fresh SFM. After appropriate incubation, the culture media from homotypic and heterotypic co-cultures were collected, centrifuged to remove debris and stored at −20° C. Following removal of culture medium, matrix containing the 3D structures was either solubilized for SDS-PAGE and Western blot analysis or fixed in buffered formalin for evaluation of morphology and distribution of functional markers.
Analysis of expression of VEGF, IL-8, Estrogen receptor (ER) and Flk-1/KDR proteins was carried out by Western analysis with specific antibodies. Aliquots of unconcentrated conditioned media or lysates of 3D cultures containing 20 or 40 μg total protein, respectively, were collected after indicated culture intervals, separated by SDS-PAGE on 12.5% (VEGF), 17% (IL-8) or 7% (ER and Flk-1/KDR) polyacrylamide gels (Laemmli, UK, Nature 227:680-685, 1970), and subjected to Western blot analysis. The following antibodies to human proteins were used: (1) rabbit polyclonal anti-VEGF antisera (recognizes C-terminal epitope of VEGF165, VEGF189 and VEGF206; Oncogene Science), mouse anti-ER mAb (Clone 1D5; reacts with the N-terminal domain or A/B region of the ER; Dako Corp., Carpenteria, Calif.), mouse anti-Flk-1/KDR mAb (Chemicon International, Inc.) and goat polyclonal anti-IL-8 antibody (R&D Systems). Immunoreactive bands were visualized by chemiluminescence, and band intensities were quantitated with a Model 300A densitometer (Molecular Dynamics, Sunnyvale, Calif.).

[10] = test system: wild type ER protein (67 kDa); experiment: Western blot of ER in matrix fractions of EIII8-HUVEC 3D cultures; settings: 100-fold molar excess over E2, day 5; 42 kDa ER-reactive protein appears
Protocol: as §3
Analysis of expression of VEGF, IL-8, Estrogen receptor (ER) and Flk-1/KDR proteins was carried out by Western analysis with specific antibodies. Aliquots of unconcentrated conditioned media or lysates of 3D cultures containing 20 or 40 μg total protein, respectively, were collected after indicated culture intervals, separated by SDS-PAGE on 12.5% (VEGF), 17% (IL-8) or 7% (ER and Flk-1/KDR) polyacrylamide gels (Laemmli, UK, Nature 227:680-685, 1970), and subjected to Western blot analysis. […] Immunoreactive bands were visualized by chemiluminescence, and band intensities were quantitated with a Model 300A densitometer (Molecular Dynamics, Sunnyvale, Calif.).

With `CC/C(=C(\c1ccc(O)cc1)c1ccc(OCCN(C)C)cc1)c1ccccc1` [4(OH) tamoxifen] the “inhibition of endothelial sprouting and associated ductal-alveolar morphogenesis” value [1] was “dramatic inhibition”.

For `C[C@]12CC[C@@H]3c4ccc(O)cc4CC[C@H]3[C@@H]1CC[C@@H]2O` [E2, 17 β-estradiol], the “effect on EIII8 3D tubular structures (tube thickening, central spaces, connecting bridges)” value ([2]; 1 or 10 nM E2, 5 days, vs control cultures) was “marked thickening of tubes; also recorded: induce formation of several new central spaces and connecting bridges”, the “growth of endothelial cell-enriched spots and ductal-alveolar outgrowths” value ([1]; 1 nM E2, 5-day co-cultures, vs control) was “enhanced” and the “stimulation of triculture growth” value [3] was “failed to stimulate growth”. The “influence on growth and proliferation of endothelial or epithelial cells” value ([4]; addition of E2 (1 nM), day 5) was “no significant influence”, the “increase in triculture growth” value ([5]; apparent only with 10 nM E2, 6 days, p<0.03) was “marginal increase” and the “increase in VEGF165 levels over control cultures” value ([6]; 1 nM E2, day 5, densitometry) was 4 fold. The “increase in VEGF165 levels over control cultures” value ([6]; 1 nM E2, day 10, densitometry) was 8 fold, the “increase in growth over control cultures” value ([7]; 10 nM E2, day 5, p<0.01) was 2 fold and the “concentrations giving dose dependent induction of growth” value ([7]; day 5, MTS and trypan blue assays) was greater than 1 nM. The “regulation of IL-8 expression” value ([8]; 1 nM E2, days 5 and 10) was “did not appear to regulate IL-8 expression”, the “levels of Flk-1/KDR protein, E2-treated vs control” value ([9]; 1 nM E2, 5 day-old cultures) was “equally up-regulated” and the “regulation of Flk-1/KDR protein levels” value [9] was “no longer regulated”.

With `C[C@]12CC[C@@H]3c4ccc(O)cc4C[C@@H](CCCCCCCCC[S+]([O-])CCCC(F)(F)C(F)(F)F)[C@H]3[C@@H]1CC[C@@H]2O` (some centres unmarked) [ICI 182,780] the “amount of wild type ER” value [10] was “significantly reduced”, the “blocking of E2-induced effects on EIII8 3D structures (epithelial multilayering)” value ([2]; 1 nM E2 plus 100-fold molar excess of antiestrogen, 5 days) was “blocked; also recorded: significantly inhibits” and the “inhibition of endothelial sprouting and associated ductal-alveolar morphogenesis” value [1] was “dramatic inhibition; also recorded: specific inhibition”. For the same molecule, the “formation of endothelial cell-enriched spots / endothelial cell growth” value ([4]; 1 nM E2 plus 100-fold molar excess ICI 182,780, day 5, MCF10A epithelium maintained) was “abolished; also recorded: specific inhibition”, the “inhibition of growth in vehicle- and E2-treated cultures” value ([5]; 100 nM ICI 182,780 alone or with 1 nM E2, 6 days, p<0.001) was “significantly inhibited; also recorded: significantly decreased” and the “E2-stimulated VEGF165 levels” value ([6]; ICI 182,780 at 100-fold molar excess over 1 nM E2) was “returned to control levels”. The “effect on growth promoting effects of E2” value ([7]; 100-fold molar excess over 1 nM E2, day 5, p<0.001) was “abolished”, the “effect on IL-8 levels” value ([8]; 100-fold molar excess over 1 nM E2, days 5 and 10) was “no effect” and the “regulation of Flk-1/KDR protein levels” value [9] was “no longer regulated”. For the same molecule, the “reduction in Flk-1/KDR protein levels” value ([9]; 100-fold molar excess, 5-day old cultures) was “about 80%”.
